Measurements reported in US9637483B2, “Heterocyclic compound” (TAKEDA PHARMACEUTICAL COMPANY LIMITED, priority 2013, dated 2017).

Columns and labels:
Format in all cases: biochemical
JAK1 = molecular target: T1, JAK1 (Homo sapiens, UniProt P23458); assay: JAK1 enzyme inhibition test (LANCE method); conditions: 1 μM test compound; read-out: JAK1 enzyme inhibitory activity (%, 1 μM)
T1 construct: purchased Invitrogen
Procedure, shortened: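 TR-FRET (LANCE) with ULight-JAK1 peptide (300 nM working solution) and ATP (150 μM working solution) in HEPES pH 7.5, MgCl2, EGTA, DTT buffer; 1 h at room temperature. EDTA stop plus Eu-anti-phosphotyrosine antibody, 665 nm read after 1 h. Inhibition relative to enzyme-free wells as 100%.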

JAK2 = molecular target: T2, JAK2 (Homo sapiens, UniProt O60674); assay: JAK2 enzyme inhibition test (LANCE method); conditions: 1 μM test compound; read-out: JAK2 enzyme inhibitory activity (%, 1 μM)
T2 construct: purchased Invitrogen
T2 sequence (O60674 whole entry): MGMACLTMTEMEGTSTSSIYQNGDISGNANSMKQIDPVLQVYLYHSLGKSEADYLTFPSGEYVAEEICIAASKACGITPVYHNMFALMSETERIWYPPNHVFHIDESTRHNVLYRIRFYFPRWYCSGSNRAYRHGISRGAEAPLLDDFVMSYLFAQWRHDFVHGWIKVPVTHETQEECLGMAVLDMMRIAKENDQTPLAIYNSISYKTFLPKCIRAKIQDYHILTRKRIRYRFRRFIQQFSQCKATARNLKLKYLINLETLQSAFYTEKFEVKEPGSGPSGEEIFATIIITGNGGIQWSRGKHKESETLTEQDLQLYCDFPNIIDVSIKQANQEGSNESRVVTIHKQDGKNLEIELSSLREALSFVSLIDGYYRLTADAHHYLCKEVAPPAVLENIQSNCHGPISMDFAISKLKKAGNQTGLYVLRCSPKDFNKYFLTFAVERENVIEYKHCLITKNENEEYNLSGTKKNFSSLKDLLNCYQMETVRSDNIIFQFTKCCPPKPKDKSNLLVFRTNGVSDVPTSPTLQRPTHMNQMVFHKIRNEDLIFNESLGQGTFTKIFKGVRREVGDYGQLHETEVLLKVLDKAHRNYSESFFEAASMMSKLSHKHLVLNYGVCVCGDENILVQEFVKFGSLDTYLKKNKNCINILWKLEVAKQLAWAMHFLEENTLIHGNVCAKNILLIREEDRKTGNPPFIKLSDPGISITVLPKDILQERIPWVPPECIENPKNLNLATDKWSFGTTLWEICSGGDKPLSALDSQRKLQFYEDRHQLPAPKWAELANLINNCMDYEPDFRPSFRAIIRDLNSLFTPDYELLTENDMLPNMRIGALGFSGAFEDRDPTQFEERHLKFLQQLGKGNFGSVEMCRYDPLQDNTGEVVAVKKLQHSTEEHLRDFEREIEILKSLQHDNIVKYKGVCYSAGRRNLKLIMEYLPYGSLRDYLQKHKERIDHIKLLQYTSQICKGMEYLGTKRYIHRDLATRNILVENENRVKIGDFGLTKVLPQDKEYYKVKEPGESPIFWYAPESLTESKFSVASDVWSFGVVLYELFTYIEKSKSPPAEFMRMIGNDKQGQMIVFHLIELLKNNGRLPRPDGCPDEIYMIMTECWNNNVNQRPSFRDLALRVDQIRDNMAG
Procedure, shortened: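 Recombinant JAK2 (6 ng/mL solution) phosphorylated ULight-JAK1 peptide (300 nM solution) with ATP (45 μM solution) in pH 7.5 HEPES/MgCl2/DTT buffer for 1 hr at room temperature. After EDTA stop and europium anti-phosphotyrosine antibody for 1 hr, TR-FRET read at 665 nm; inhibition relative to enzyme-free wells as 100%.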

JAK3 = molecular target: T3, JAK3 (Homo sapiens, UniProt P52333); assay: JAK3 enzyme inhibition test (LANCE method); conditions: 1 μM test compound; read-out: JAK3 enzyme inhibitory activity (%, 1 μM)
T3 construct: purchased Invitrogen
T3 sequence (P52333 1-1124): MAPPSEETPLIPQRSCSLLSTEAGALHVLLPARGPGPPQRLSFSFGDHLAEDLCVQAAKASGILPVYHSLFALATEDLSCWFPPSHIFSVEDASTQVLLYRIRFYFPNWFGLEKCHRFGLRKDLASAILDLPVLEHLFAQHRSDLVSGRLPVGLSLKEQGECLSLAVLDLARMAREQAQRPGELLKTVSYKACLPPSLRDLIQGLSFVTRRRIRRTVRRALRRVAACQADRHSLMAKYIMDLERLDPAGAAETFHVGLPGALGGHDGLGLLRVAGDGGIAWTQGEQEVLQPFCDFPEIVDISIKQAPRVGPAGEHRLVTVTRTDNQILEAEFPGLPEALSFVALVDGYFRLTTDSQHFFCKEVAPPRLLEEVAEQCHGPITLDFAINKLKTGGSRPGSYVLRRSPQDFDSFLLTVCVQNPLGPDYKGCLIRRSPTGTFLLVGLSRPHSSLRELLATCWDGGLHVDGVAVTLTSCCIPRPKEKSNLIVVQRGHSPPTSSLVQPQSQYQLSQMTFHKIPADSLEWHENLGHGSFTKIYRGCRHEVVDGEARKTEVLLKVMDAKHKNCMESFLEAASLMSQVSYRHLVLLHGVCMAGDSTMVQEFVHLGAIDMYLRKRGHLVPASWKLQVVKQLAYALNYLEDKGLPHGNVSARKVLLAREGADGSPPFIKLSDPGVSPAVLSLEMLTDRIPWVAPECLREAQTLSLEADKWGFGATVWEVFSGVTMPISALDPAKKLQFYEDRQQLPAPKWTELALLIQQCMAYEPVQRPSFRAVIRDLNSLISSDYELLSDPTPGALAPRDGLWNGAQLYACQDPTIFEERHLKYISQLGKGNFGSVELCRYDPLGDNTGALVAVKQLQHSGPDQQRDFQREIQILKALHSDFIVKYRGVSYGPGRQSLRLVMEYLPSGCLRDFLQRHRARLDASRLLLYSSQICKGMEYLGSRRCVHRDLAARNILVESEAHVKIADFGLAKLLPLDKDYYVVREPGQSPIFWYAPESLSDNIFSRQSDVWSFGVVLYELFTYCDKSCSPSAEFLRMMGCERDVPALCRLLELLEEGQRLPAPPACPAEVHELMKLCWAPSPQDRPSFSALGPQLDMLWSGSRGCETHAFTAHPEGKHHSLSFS
Procedure, shortened: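 Recombinant JAK3 (12 ng/mL solution) with ULight-JAK1 peptide (300 nM solution) and ATP (15 μM solution) in HEPES pH 7.5 buffer, 1 h at room temperature. EDTA stop with Eu-anti-phosphotyrosine antibody; TR-FRET at 665 nm. Inhibition relative to enzyme-free wells as 100%.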

TYK2 = molecular target: T4, TYK2 (Homo sapiens, UniProt P29597); assay: TYK2 enzyme inhibition test (LANCE method); conditions: 1 μM test compound; read-out: TYK2 enzyme inhibitory activity (%, 1 μM)
T4 construct: purchased Invitrogen
T4 sequence (P29597 whole entry): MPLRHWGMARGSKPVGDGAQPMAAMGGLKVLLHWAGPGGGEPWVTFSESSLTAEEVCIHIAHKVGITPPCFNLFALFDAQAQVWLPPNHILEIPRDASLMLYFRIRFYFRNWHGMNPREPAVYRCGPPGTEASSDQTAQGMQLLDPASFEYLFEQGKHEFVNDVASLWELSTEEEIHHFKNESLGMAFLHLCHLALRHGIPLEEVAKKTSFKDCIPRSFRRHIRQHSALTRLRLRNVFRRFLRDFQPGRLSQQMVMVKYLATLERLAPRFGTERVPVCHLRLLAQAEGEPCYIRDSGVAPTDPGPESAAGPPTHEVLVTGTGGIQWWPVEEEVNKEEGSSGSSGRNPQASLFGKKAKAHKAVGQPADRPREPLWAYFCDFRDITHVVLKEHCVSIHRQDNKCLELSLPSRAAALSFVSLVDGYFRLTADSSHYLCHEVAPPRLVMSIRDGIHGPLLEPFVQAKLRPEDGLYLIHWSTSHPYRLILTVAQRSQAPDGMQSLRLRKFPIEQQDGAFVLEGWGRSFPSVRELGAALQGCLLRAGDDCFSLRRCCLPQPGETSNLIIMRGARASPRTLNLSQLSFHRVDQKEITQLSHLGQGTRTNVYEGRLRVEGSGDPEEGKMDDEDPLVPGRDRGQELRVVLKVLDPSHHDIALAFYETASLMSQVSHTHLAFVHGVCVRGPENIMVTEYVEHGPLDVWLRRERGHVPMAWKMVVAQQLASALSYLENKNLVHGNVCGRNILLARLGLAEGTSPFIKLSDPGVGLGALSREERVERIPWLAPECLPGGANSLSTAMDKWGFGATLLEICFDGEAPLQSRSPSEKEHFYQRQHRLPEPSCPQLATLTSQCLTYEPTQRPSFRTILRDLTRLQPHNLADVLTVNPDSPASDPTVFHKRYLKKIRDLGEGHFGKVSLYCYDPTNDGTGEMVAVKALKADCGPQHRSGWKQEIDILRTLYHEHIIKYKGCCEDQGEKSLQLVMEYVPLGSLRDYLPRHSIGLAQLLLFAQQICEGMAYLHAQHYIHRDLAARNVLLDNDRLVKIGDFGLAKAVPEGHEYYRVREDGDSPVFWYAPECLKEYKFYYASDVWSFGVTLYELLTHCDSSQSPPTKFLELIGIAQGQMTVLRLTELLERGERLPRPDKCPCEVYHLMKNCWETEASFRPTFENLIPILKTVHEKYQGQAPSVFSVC
Procedure, shortened: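 Recombinant TYK2 (375 ng/mL working solution) with ULight-JAK1 peptide (300 nM working solution) and ATP (30 μM working solution) in HEPES pH 7.5 buffer with MgCl2, EGTA, DTT, Tween20, BSA, reacted 1 h at RT. EDTA-stopped, Eu-anti-phosphotyrosine TR-FRET read at 665 nm; inhibition relative to enzyme-free wells as 100%.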

T1 sequence (P23458 whole entry): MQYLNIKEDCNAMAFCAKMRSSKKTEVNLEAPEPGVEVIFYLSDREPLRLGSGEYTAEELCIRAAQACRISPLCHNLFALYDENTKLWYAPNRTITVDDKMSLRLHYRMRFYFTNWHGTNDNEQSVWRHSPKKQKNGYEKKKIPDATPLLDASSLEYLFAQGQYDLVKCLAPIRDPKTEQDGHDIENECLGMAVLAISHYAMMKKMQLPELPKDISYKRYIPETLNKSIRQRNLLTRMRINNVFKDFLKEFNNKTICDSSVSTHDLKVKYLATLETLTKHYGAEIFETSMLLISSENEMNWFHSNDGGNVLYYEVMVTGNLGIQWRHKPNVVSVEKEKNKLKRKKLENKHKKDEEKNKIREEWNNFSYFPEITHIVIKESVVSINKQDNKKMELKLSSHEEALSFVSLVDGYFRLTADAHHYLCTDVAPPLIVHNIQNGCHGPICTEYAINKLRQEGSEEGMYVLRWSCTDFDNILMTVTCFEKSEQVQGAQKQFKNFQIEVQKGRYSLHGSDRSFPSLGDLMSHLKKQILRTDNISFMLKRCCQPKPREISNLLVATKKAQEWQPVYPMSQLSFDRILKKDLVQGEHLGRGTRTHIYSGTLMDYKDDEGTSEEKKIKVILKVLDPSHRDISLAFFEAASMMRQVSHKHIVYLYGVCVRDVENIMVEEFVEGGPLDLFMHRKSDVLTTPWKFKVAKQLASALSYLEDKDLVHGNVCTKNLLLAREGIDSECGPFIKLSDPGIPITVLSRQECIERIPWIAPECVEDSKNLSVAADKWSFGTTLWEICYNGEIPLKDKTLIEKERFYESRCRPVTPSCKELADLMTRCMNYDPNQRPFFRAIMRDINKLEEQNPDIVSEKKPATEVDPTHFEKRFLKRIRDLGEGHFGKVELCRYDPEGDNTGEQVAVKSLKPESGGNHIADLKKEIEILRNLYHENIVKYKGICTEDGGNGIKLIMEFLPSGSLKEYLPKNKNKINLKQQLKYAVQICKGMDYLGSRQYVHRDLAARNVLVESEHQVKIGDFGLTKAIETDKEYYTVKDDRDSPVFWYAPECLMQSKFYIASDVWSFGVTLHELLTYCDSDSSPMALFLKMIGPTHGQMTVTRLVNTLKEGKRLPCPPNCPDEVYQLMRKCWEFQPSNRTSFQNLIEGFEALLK

inhibition at 1 µM (JAK1) [%] | inhibition at 1 µM (JAK2) [%] | inhibition at 1 µM (JAK3) [%] | inhibition at 1 µM (TYK2) [%] | SMILES
98 | 98 | 100 | 100 | CC(C)[C@H](C)n1cc(-c2cc(N3CCCC3)n(C)n2)c2[nH]nc(N)c2c1=O [Example 27, 3-amino-5-((2S)-3-methylbutan-2-yl)-7-(1-methyl-5-(pyrrolidin-1-yl)-1H-pyrazol-3-yl)-1,5-dihydro-4H-pyrazolo[4,3-c]pyridin-4-one]
78 | 90 | 95 | 98 | CCn1nc(-c2cn([C@@H](C)C(C)C)c(=O)c3c(N)n[nH]c23)cc1N1CCS(=O)(=O)CC1 [Example 28, 3-amino-7-(5-(1,1-dioxidothiomorpholin-4-yl)-1-ethyl-1H-pyrazol-3-yl)-5-((2S)-3-methylbutan-2-yl)-1,5-dihydro-4H-pyrazolo[4,3-c]pyridin-4-one]
47 | 49 | 67 | 93 | CC(C)[C@H](C)n1cc(-c2cc(N3CCS(=O)(=O)CC3)n(CC(F)(F)F)n2)c2[nH]nc(N)c2c1=O [Example 29, 3-amino-7-(5-(1,1-dioxidothiomorpholin-4-yl)-1-(2,2,2-trifluoroethyl)-1H-pyrazol-3-yl)-5-((2S)-3-methylbutan-2-yl)-1,5-dihydro-4H-pyrazolo[4,3-c]pyridin-4-one]
97 | 99 | 99 | 99 | CC(C)[C@H](C)n1cc(-c2cc(N3CCOC(C)(C)C3)n(C)n2)c2[nH]nc(N)c2c1=O [Example 30, 3-amino-7-(5-(2,2-dimethylmorpholin-4-yl)-1-methyl-1H-pyrazol-3-yl)-5-((2S)-3-methylbutan-2-yl)-1,5-dihydro-4H-pyrazolo[4,3-c]pyridin-4-one]
97 | 98 | 99 | 99 | CC1CN(c2cc(-c3cn([C@@H](C)C(C)C)c(=O)c4c(N)n[nH]c34)nn2C)CCO1 (stereo partly drawn) [Example 31, 3-amino-5-((2S)-3-methylbutan-2-yl)-7-(1-methyl-5-(2-methylmorpholin-4-yl)-1H-pyrazol-3-yl)-1,5-dihydro-4H-pyrazolo[4,3-c]pyridin-4-one]
96 | 98 | 99 | 99 | CC(C)[C@H](C)n1cc(-c2cc(N3CCN4CCCC4C3)n(C)n2)c2[nH]nc(N)c2c1=O (stereo partly drawn) [Example 32, 3-amino-7-(5-(hexahydropyrrolo[1,2-a]pyrazin-2 (H)-yl)-1-methyl-1H-pyrazol-3-yl)-5-((2S)-3-methylbutan-2-yl)-1,5-dihydro-4H-pyrazolo[4,3-c]pyridin-4-one]
96 | 98 | 99 | 99 | CC(C)[C@H](C)n1cc(-c2cc(N3CCC(C)(O)C3)n(C)n2)c2[nH]nc(N)c2c1=O (stereo partly drawn) [Example 33, 3-amino-7-(5-(3-hydroxy-3-methylpyrrolidin-1-yl)-1-methyl-1H-pyrazol-3-yl)-5-((2S)-3-methylbutan-2-yl)-1,5-dihydro-4H-pyrazolo[4,3-c]pyridin-4-one]
97 | 99 | 100 | 100 | CC(C)[C@H](C)n1cc(-c2cc(N3CCC4(CC3)COC4)n(C)n2)c2[nH]nc(N)c2c1=O [Example 34, 3-amino-5-((2S)-3-methylbutan-2-yl)-7-(1-methyl-5-(2-oxa-7-azaspiro[3.5]non-7-yl)-1H-pyrazol-3-yl)-1,5-dihydro-4H-pyrazolo[4,3-c]pyridin-4-one]
97 | 99 | 100 | 99 | CC(C)[C@H](C)n1cc(-c2cc(C3(O)CCOCC3)n(C)n2)c2[nH]nc(N)c2c1=O [Example 35, 3-amino-7-(5-(4-hydroxytetrahydro-2H-pyran-4-yl)-1-methyl-1H-pyrazol-3-yl)-5-((2S)-3-methylbutan-2-yl)-1,5-dihydro-4H-pyrazolo[4,3-c]pyridin-4-one]
55 | 80 | 85 | 91 | COCCn1nc(-c2cn([C@@H](C)C(C)C)c(=O)c3c(N)n[nH]c23)cc1C(C)(C)O [Example 36, 3-amino-7-(5-(2-hydroxypropan-2-yl)-1-(2-methoxyethyl)-1H-pyrazol-3-yl)-5-((2S)-3-methylbutan-2-yl)-1,5-dihydro-4H-pyrazolo[4,3-c]pyridin-4-one]
98 | 99 | 100 | 99 | CC(C)[C@H](C)n1cc(-c2cc(C3(O)CCC(F)(F)CC3)n(C)n2)c2[nH]nc(N)c2c1=O [Example 37, 3-amino-7-(5-(4,4-difluoro-1-hydroxycyclohexyl)-1-methyl-1H-pyrazol-3-yl)-5-((2S)-3-methylbutan-2-yl)-1,5-dihydro-4H-pyrazolo[4,3-c]pyridin-4-one]
99 | 99 | 100 | 100 | CC(C)[C@H](C)n1cc(-c2cc(C3(O)CCC3)n(C)n2)c2[nH]nc(N)c2c1=O [Example 38, 3-amino-7-(5-(1-hydroxycyclobutyl)-1-methyl-1H-pyrazol-3-yl)-5-((2S)-3-methylbutan-2-yl)-1,5-dihydro-4H-pyrazolo[4,3-c]pyridin-4-one]
99 | 99 | 100 | 100 | CC(C)[C@H](C)n1cc(-c2cc(C3=CCOCC3)n(C)n2)c2[nH]nc(N)c2c1=O [Example 39, 3-amino-7-(5-(3,6-dihydro-2H-pyran-4-yl)-1-methyl-1H-pyrazol-3-yl)-5-((2S)-3-methylbutan-2-yl)-1,5-dihydro-4H-pyrazolo[4,3-c]pyridin-4-one]
99 | 98 | 99 | 100 | CNC(=O)c1ccc(-c2cc(-c3cn([C@@H](C)C(C)C)c(=O)c4c(N)n[nH]c34)nn2C)cc1 [Example 40, 4-(3-(3-amino-5-((2S)-3-methylbutan-2-yl)-4-oxo-4,5-dihydro-1H-pyrazolo[4,3-c]pyridin-7-yl)-1-methyl-1H-pyrazol-5-yl)-N-methylbenzamide]
97 | 99 | 100 | 101 | CC(C)[C@H](C)n1cc(-c2cc(N3CCOCC3)n(C)n2)c2[nH]nc(N)c2c1=O [Example 41, 3-amino-5-((2S)-3-methylbutan-2-yl)-7-(1-methyl-5-(morpholin-4-yl)-1H-pyrazol-3-yl)-1,5-dihydro-4H-pyrazolo[4,3-c]pyridin-4-one]
